We go through 1 compound from paper PMC7956620 (Molecules, 2021).

The structures appear in SMILES notation. Numbering of substitutions follows the chain as printed.

What all share (format): cell-based
Common to all, as to conditions: 100 µM chanoclavine, read-out: Inhibition Percentage (%)

The target in assay [1] is T1, 5-HT3A receptor Y153A mutant (Homo sapiens, UniProt P46098, Y148A).
T1 construct: host or cells: Xenopus laevis oocytes injected with in vitro transcribed mRNA
T1 sequence (P46098 24-478 Y148A): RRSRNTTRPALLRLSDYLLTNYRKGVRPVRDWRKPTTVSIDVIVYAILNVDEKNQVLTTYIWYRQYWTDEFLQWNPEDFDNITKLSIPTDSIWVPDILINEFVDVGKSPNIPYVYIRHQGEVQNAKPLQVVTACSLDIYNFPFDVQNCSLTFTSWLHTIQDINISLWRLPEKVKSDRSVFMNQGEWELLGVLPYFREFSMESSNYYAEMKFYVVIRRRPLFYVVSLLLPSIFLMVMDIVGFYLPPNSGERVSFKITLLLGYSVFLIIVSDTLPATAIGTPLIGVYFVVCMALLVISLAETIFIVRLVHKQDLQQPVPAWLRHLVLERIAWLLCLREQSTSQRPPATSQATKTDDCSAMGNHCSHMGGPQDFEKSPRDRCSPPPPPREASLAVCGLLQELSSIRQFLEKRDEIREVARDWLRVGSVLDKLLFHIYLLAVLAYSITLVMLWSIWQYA
The assay is described as follows: two-electrode voltage clamp, Y153A mutant receptor in Xenopus oocytes. As for the experimental part: (§1) The site-directed mutation of one or two amino acids was performed using sense and antisense primers and Pfu polymerase (QuickChange Site-Directed Mutagenesis Kit; Agilent, Santa Clara, CA, USA) and amplified by polymerase chain reaction (PCR) to increase the target domain. After removing the existing methylated cDNA using Dpn Ⅰ, the PCR products were transformed into Escherichia coli strain DH5α. The cDNA of the 5-HT3A receptor was linearized by Xho Ⅰ at the end of the multi-cloning site, followed by transcription using T7 polymerase and a transcription kit (mMESSAGE mMACHINE T7 Transcription Kit; Thermo Fisher Scientific, Waltham, MA, USA). […]
(§2) To isolate oocytes, female Xenopus laevis were put into a container filled with ice and left for about one hour. […] When the Xenopus oocytes were ready for injection, 50 ng of mRNA was injected with a nanoliter injector (Drummond Scientific, Vernon Hills, IL, USA). […]
(§3) The oocytes in which mRNA was expressed during the incubation period allowed for the estimation of channel or receptor properties for observing drug and ligand potential interactions using a two-electrode voltage clamp (OC-725C; Warner Instruments, Hamden, CT, USA) and Digidata (1322A; Molecular Devices, Sunnyvale, CA, USA). […] The voltage and current electrodes were filled with 3 M KCl (0.3–0.7 MΩ) and analyzed at a −80 mV holding potential. […]

For assay [2], the target named is T2, 5-HT3A receptor R92A mutant (Homo sapiens, UniProt P46098, R87A).
T2 construct: host or cells: Xenopus laevis oocytes injected with in vitro transcribed mRNA
T2 sequence (P46098 24-478 R87A): T1 sequence (P46098 24-478 Y148A) with R64A, A125Y
In words: two-electrode voltage clamp, R92A mutant receptor in Xenopus oocytes. The method, then:
as §1, §2, §3

Assay [3] deals with T3, 5-HT3A receptor Y91A mutant (Homo sapiens, UniProt P46098, Y86A).
T3 construct: host or cells: Xenopus laevis oocytes injected with in vitro transcribed mRNA
T3 sequence (P46098 24-478 Y86A): T1 sequence (P46098 24-478 Y148A) with Y63A, A125Y
In words: two-electrode voltage clamp, Y91A mutant receptor in Xenopus oocytes. As for the experimental part:
as §1, §2, §3

As usually defined, the inhibition is the drop in the measured response relative to a control, in per cent.

With `CN[C@@H]1Cc2c[nH]c3cccc(c23)[C@H]1/C=C(\C)CO` [chanoclavine], the results for the inhibition at 100 µM in assay [1], in assay [2] and in assay [3] were 56.9 ± 3.6%, 95.45 ± 0.3% and 50.2 ± 5.1%, respectively.
